biological target: T1, PPARγ (Homo sapiens, UniProt P37231); test: commercial PPARγ binding assay (Invitrogen; PPAR-LBD/Fluormone PPAR Green complex); conditions: 1 μM compound; mean of three experiments
T1 construct: purchased Invitrogen Corporation, Carlsbad, Calif
T1 sequence (P37231 238-503 limits assumed): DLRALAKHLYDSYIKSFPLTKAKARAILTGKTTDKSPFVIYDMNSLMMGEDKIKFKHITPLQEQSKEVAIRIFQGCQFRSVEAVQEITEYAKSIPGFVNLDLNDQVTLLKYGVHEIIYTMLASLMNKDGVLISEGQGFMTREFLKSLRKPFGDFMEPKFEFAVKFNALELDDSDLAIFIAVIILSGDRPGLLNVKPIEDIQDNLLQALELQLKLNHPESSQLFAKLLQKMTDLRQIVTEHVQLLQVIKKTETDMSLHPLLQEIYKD
Protocol: The ability of several exemplary compounds of the present invention, shown in Table A, to bind to PPARγ was measured using a commercial binding assay (Invitrogen Corporation, Carlsbad, Calif.) that measures the test compounds ability to bind with PPAR-LBD/Fluormone PPAR Green complex. These assays were performed on three occasions with each assay using four separate wells (quadruplicate) at each concentration of tested compound. The data are mean and SEM of the values obtained from the three experiments. […] Compounds were added at the concentrations shown, which range from 0.1-100 micromolar.

**Q.** Which “Binding to PPARγ (Fluormone displacement signal)” value (shortened to “Binding to PPARγ”) does the source give for `CCc1ccc(C(O)COc2ccc(CC3(C)SC(=O)NC3=O)cc2)nc1` (stereo not shown) [Compound 5] here?
**A.** 228

**Q.** `CCc1ccc([C@@H](O)COc2ccc(CC3(C)SC(=O)NC3=O)cc2)nc1` (stereo partly shown) [Compound 8] was tested. Which “Binding to PPARγ” value did it give?
**A.** 239

**Q.** How did the “Binding to PPARγ” value turn out when `CCc1ccc([C@H](O)COc2ccc(CC3(C)SC(=O)NC3=O)cc2)nc1` (stereo partly shown) [Compound 9] was run?
**A.** 239

**Q.** With `CCc1ccc(C(=O)COc2ccc(CC3(C)SC(=O)NC3=O)cc2)nc1` (stereo not shown) [Compound 10] as the compound, how does the “Binding to PPARγ” value read?
**A.** 240

**Q.** Which “Binding to PPARγ” value does the source give for `CCc1ccc(C(=CC(=O)OC)COc2ccc(CC3SC(=O)NC3=O)cc2)nc1` (stereo not shown) [Compound 11] here?
**A.** 232

**Q.** For `CCc1ccc(C(COc2ccc(CC3SC(=O)NC3=O)cc2)CC(=O)OC)nc1` (stereo not shown) [Compound 12], which “Binding to PPARγ” value is on record?
**A.** 198

**Q.** With `CCc1ccc(C(=CCO)COc2ccc(CC3SC(=O)NC3=O)cc2)nc1` (stereo not shown) [Compound 13] as the compound, how does the “Binding to PPARγ” value read?
**A.** 229

same assay, conditions: 3 μM compound; mean of three experiments

**Q.** `CCc1ccc(C(O)COc2ccc(CC3(C)SC(=O)NC3=O)cc2)nc1` (stereo not shown) [Compound 5] was tested. Which “Binding to PPARγ” value did it give?
**A.** 226

**Q.** How did the “Binding to PPARγ” value turn out when `CCc1ccc([C@@H](O)COc2ccc(CC3(C)SC(=O)NC3=O)cc2)nc1` (stereo partly shown) [Compound 8] was run?
**A.** 241

**Q.** With `CCc1ccc([C@H](O)COc2ccc(CC3(C)SC(=O)NC3=O)cc2)nc1` (stereo partly shown) [Compound 9] as the compound, how does the “Binding to PPARγ” value read?
**A.** 233

**Q.** Which “Binding to PPARγ” value does the source give for `CCc1ccc(C(=O)COc2ccc(CC3(C)SC(=O)NC3=O)cc2)nc1` (stereo not shown) [Compound 10] here?
**A.** 234

**Q.** `CCc1ccc(C(=CC(=O)OC)COc2ccc(CC3SC(=O)NC3=O)cc2)nc1` (stereo not shown) [Compound 11] was tested. Which “Binding to PPARγ” value did it give?
**A.** 229

**Q.** For `CCc1ccc(C(COc2ccc(CC3SC(=O)NC3=O)cc2)CC(=O)OC)nc1` (stereo not shown) [Compound 12], which “Binding to PPARγ” value is on record?
**A.** 155

**Q.** `CCc1ccc(C(=CCO)COc2ccc(CC3SC(=O)NC3=O)cc2)nc1` (stereo not shown) [Compound 13] was tested. Which “Binding to PPARγ” value did it give?
**A.** 230

same assay, conditions: 10 μM compound; mean of three experiments

**Q.** For `CCc1ccc(C(O)COc2ccc(CC3(C)SC(=O)NC3=O)cc2)nc1` (stereo not shown) [Compound 5], which “Binding to PPARγ” value is on record?
**A.** 212

**Q.** With `CCc1ccc([C@@H](O)COc2ccc(CC3(C)SC(=O)NC3=O)cc2)nc1` (stereo partly shown) [Compound 8] as the compound, how does the “Binding to PPARγ” value read?
**A.** 233

**Q.** Which “Binding to PPARγ” value does the source give for `CCc1ccc([C@H](O)COc2ccc(CC3(C)SC(=O)NC3=O)cc2)nc1` (stereo partly shown) [Compound 9] here?
**A.** 234

**Q.** With `CCc1ccc(C(=O)COc2ccc(CC3(C)SC(=O)NC3=O)cc2)nc1` (stereo not shown) [Compound 10] as the compound, how does the “Binding to PPARγ” value read?
**A.** 219

**Q.** Which “Binding to PPARγ” value does the source give for `CCc1ccc(C(=CC(=O)OC)COc2ccc(CC3SC(=O)NC3=O)cc2)nc1` (stereo not shown) [Compound 11] here?
**A.** 165

**Q.** With `CCc1ccc(C(COc2ccc(CC3SC(=O)NC3=O)cc2)CC(=O)OC)nc1` (stereo not shown) [Compound 12] as the compound, how does the “Binding to PPARγ” value read?
**A.** 112

**Q.** How did the “Binding to PPARγ” value turn out when `CCc1ccc(C(=CCO)COc2ccc(CC3SC(=O)NC3=O)cc2)nc1` (stereo not shown) [Compound 13] was run?
**A.** 204

same assay, conditions: 50 μM compound; mean of three experiments

**Q.** How did the “Binding to PPARγ” value turn out when `CCc1ccc(C(O)COc2ccc(CC3(C)SC(=O)NC3=O)cc2)nc1` (stereo not shown) [Compound 5] was run?
**A.** 132

**Q.** `CCc1ccc([C@@H](O)COc2ccc(CC3(C)SC(=O)NC3=O)cc2)nc1` (stereo partly shown) [Compound 8] was tested. Which “Binding to PPARγ” value did it give?
**A.** 199

**Q.** With `CCc1ccc([C@H](O)COc2ccc(CC3(C)SC(=O)NC3=O)cc2)nc1` (stereo partly shown) [Compound 9] as the compound, how does the “Binding to PPARγ” value read?
**A.** 189

**Q.** Which “Binding to PPARγ” value does the source give for `CCc1ccc(C(=O)COc2ccc(CC3(C)SC(=O)NC3=O)cc2)nc1` (stereo not shown) [Compound 10] here?
**A.** 126

**Q.** How did the “Binding to PPARγ” value turn out when `CCc1ccc(C(=CC(=O)OC)COc2ccc(CC3SC(=O)NC3=O)cc2)nc1` (stereo not shown) [Compound 11] was run?
**A.** 128

**Q.** With `CCc1ccc(C(COc2ccc(CC3SC(=O)NC3=O)cc2)CC(=O)OC)nc1` (stereo not shown) [Compound 12] as the compound, how does the “Binding to PPARγ” value read?
**A.** 80

**Q.** Which “Binding to PPARγ” value does the source give for `CCc1ccc(C(=CCO)COc2ccc(CC3SC(=O)NC3=O)cc2)nc1` (stereo not shown) [Compound 13] here?
**A.** 148

same assay, conditions: 100 μM compound; mean of three experiments

**Q.** Which “Binding to PPARγ” value does the source give for `CCc1ccc(C(O)COc2ccc(CC3(C)SC(=O)NC3=O)cc2)nc1` (stereo not shown) [Compound 5] here?
**A.** 106

**Q.** For `CCc1ccc([C@@H](O)COc2ccc(CC3(C)SC(=O)NC3=O)cc2)nc1` (stereo partly shown) [Compound 8], which “Binding to PPARγ” value is on record?
**A.** 186

**Q.** With `CCc1ccc([C@H](O)COc2ccc(CC3(C)SC(=O)NC3=O)cc2)nc1` (stereo partly shown) [Compound 9] as the compound, how does the “Binding to PPARγ” value read?
**A.** 164

**Q.** `CCc1ccc(C(=O)COc2ccc(CC3(C)SC(=O)NC3=O)cc2)nc1` (stereo not shown) [Compound 10] was tested. Which “Binding to PPARγ” value did it give?
**A.** 93

**Q.** `CCc1ccc(C(=CC(=O)OC)COc2ccc(CC3SC(=O)NC3=O)cc2)nc1` (stereo not shown) [Compound 11] was tested. Which “Binding to PPARγ” value did it give?
**A.** 78

**Q.** How did the “Binding to PPARγ” value turn out when `CCc1ccc(C(COc2ccc(CC3SC(=O)NC3=O)cc2)CC(=O)OC)nc1` (stereo not shown) [Compound 12] was run?
**A.** 85

**Q.** Which “Binding to PPARγ” value does the source give for `CCc1ccc(C(=CCO)COc2ccc(CC3SC(=O)NC3=O)cc2)nc1` (stereo not shown) [Compound 13] here?
**A.** 108

same assay, conditions: .1 μM compound; mean of three experiments

**Q.** Which “Binding to PPARγ” value does the source give for `CCc1ccc(C(O)COc2ccc(CC3(C)SC(=O)NC3=O)cc2)nc1` (stereo not shown) [Compound 5] here?
**A.** 235

**Q.** For `CCc1ccc([C@@H](O)COc2ccc(CC3(C)SC(=O)NC3=O)cc2)nc1` (stereo partly shown) [Compound 8], which “Binding to PPARγ” value is on record?
**A.** 237

**Q.** With `CCc1ccc([C@H](O)COc2ccc(CC3(C)SC(=O)NC3=O)cc2)nc1` (stereo partly shown) [Compound 9] as the compound, how does the “Binding to PPARγ” value read?
**A.** 237

**Q.** `CCc1ccc(C(=O)COc2ccc(CC3(C)SC(=O)NC3=O)cc2)nc1` (stereo not shown) [Compound 10] was tested. Which “Binding to PPARγ” value did it give?
**A.** 245

**Q.** Which “Binding to PPARγ” value does the source give for `CCc1ccc(C(=CC(=O)OC)COc2ccc(CC3SC(=O)NC3=O)cc2)nc1` (stereo not shown) [Compound 11] here?
**A.** 230

**Q.** Which “Binding to PPARγ” value does the source give for `CCc1ccc(C(COc2ccc(CC3SC(=O)NC3=O)cc2)CC(=O)OC)nc1` (stereo not shown) [Compound 12] here?
**A.** 243

**Q.** Which “Binding to PPARγ” value does the source give for `CCc1ccc(C(=CCO)COc2ccc(CC3SC(=O)NC3=O)cc2)nc1` (stereo not shown) [Compound 13] here?
**A.** 244

same assay, conditions: .3 μM compound; mean of three experiments

**Q.** How did the “Binding to PPARγ” value turn out when `CCc1ccc(C(O)COc2ccc(CC3(C)SC(=O)NC3=O)cc2)nc1` (stereo not shown) [Compound 5] was run?
**A.** 230

**Q.** With `CCc1ccc([C@@H](O)COc2ccc(CC3(C)SC(=O)NC3=O)cc2)nc1` (stereo partly shown) [Compound 8] as the compound, how does the “Binding to PPARγ” value read?
**A.** 243

**Q.** For `CCc1ccc([C@H](O)COc2ccc(CC3(C)SC(=O)NC3=O)cc2)nc1` (stereo partly shown) [Compound 9], which “Binding to PPARγ” value is on record?
**A.** 237

**Q.** `CCc1ccc(C(=O)COc2ccc(CC3(C)SC(=O)NC3=O)cc2)nc1` (stereo not shown) [Compound 10] was tested. Which “Binding to PPARγ” value did it give?
**A.** 239

**Q.** With `CCc1ccc(C(=CC(=O)OC)COc2ccc(CC3SC(=O)NC3=O)cc2)nc1` (stereo not shown) [Compound 11] as the compound, how does the “Binding to PPARγ” value read?
**A.** 227

**Q.** With `CCc1ccc(C(COc2ccc(CC3SC(=O)NC3=O)cc2)CC(=O)OC)nc1` (stereo not shown) [Compound 12] as the compound, how does the “Binding to PPARγ” value read?
**A.** 222

**Q.** Which “Binding to PPARγ” value does the source give for `CCc1ccc(C(=CCO)COc2ccc(CC3SC(=O)NC3=O)cc2)nc1` (stereo not shown) [Compound 13] here?
**A.** 243
